Source: patent US20120309717A1, “COMPOUNDS, METHODS AND PHARMACEUTICAL COMPOSITIONS FOR INHIBITING PARP” (EISAI INC., priority 2003, published 2012)

How the values were obtained:
[1] = test system: regional heart ischemia reperfusion; assay: regional heart ischemia reperfusion model (LAD occlusion); type: in vivo, rat; conditions: iv bolus pre-ischemia plus iv bolus post-ischemia, 10 to 40 mg/kg; 30 min LAD occlusion, 2 hr reperfusion; male SD rats
Description: In the present study, we investigated the effects of 43 in the regional heart ischemia reperfusion model. In regional heart ischemia model, sodium thiopental-anaesthetized male SD rats were subjected to occlusion of LAD coronary artery for 30 min followed by 2 hr of reperfusion. The infarct size was quantified by TTC staining method and expressed as percent of area at risk.
The left anterior descending coronary artery of Sprague-Dawley rats was occluded for 30 minutes. This was followed by 90-120 minutes of blood reflow. PARP inhibitor compounds were given intraperitoneally (ip), 60 minutes pre-, or intravenously (iv), 15 or 5 minutes pre- and 25 minutes post-onset of ischemia. Infarct size was determined by TTC staining and the risk area was determined via blue dye injection.

[2] = test system: murine melanoma cell line B16; assay: colony-formation assay, B16; type: cell-based
Description: (§1) The murine melanoma cell line B16 of C57BL/6J (H-2^b/H-2^b) origin and the lymphoma cell line L5178Y of DBA/2 (H-2^d/H-2^d) origin (ATCC, Manassas, Va.) were cultured in RPMI-1640 containing 10% fetal calf serum (Invitrogen, Milan, Italy), 2 mM L-glutamine, 100 units/ml penicillin and 100 μg/ml streptomycin (Flow Laboratories, Mc Lean, Va.), at 37° C. in a 5% CO2 humidified atmosphere. The human glioblastoma multiforme cell line SJGBM2 was cultured in DMEM (Invitrogen) supplemented with 10% fetal calf serum, 2 mM L-glutamine and antibiotics. SJGBM2 cell line was a kind gift from Dr. Peter J. Houghton (St. Jude Children's Research Hospital, Memphis, Tenn., USA).
(§2) […] For the experiments aimed at assessing the enhancing effect of 43 on TMZ-induced tumor growth inhibition, the methylating agent was added to cell cultures 15 min after 43 was used at concentrations non-toxic, and capable of abrogating PARP activity.
(§3) Long-term survival was analyzed by colony-formation assay. Exponentially growing melanoma and glioblastoma cells were seeded into 6-well plates at a density of 2×10^2/well and left to attach for 18 h; cells were then treated with the compounds under study and cultured to allow colony formation. After 10 days, colonies (defined as a cluster of >50 cells) were fixed and stained with rhodamine B basic violet 10 (ICN Biomedicals Inc., Aurora, Ohio, USA). Untreated or treated lymphoma cells were seeded at 1 cell/well in 96-well plates (flat-bottomed) and cultured. After 10 days, colonies were counted to determine cloning efficiency, using an optical microscope (Tentori 2001b).
(§4) Cell line chemosensitivity to TMZ, 43 or to the drug combination was evaluated in terms of IC50, i.e. the concentration of the drug expressed in μM, capable of inhibiting colony-forming ability by 50%. The IC50 was calculated on the regression line in which the number of colonies was plotted vs the drug concentration.

[3] = test system: human glioblastoma multiforme cell line SJGBM2; assay: colony-formation assay, SJGBM2; type: cell-based
Description: as §1
Cells were treated with 43 (0.1-20 μM) or with TMZ (1-250 μM). For the experiments aimed at assessing the enhancing effect of 43 on TMZ-induced tumor growth inhibition, the methylating agent was added to cell cultures 15 min after 43 was used at concentrations non-toxic, and capable of abrogating PARP activity.
as §3, §4

[4] = test system: lymphoma cell line L5178Y; assay: colony-formation assay, L5178Y; type: cell-based, murine
Description: as §1, §2, §3, §4

[5] = test system: B16 melanoma; assay: B16 melanoma growing subcutaneously in B6D2F1 mice; type: in vivo, mouse; conditions: 3 days
Description: 43 was administered 15 min before TMZ administration. Control mice were always injected with drug vehicles.
The efficacy of TMZ±43 treatment was also evaluated on melanoma growing subcutaneously (sc). For this purpose B16 cells (2.5×10^5) were inoculated sc in the flank of the animal. Tumors were measured with calipers and volume calculated according to the formula: [(width)^2×length]/2. Treatment was started 6 days after challenge, when the volume of tumor nodules reached 100-150 mm^3. Melanoma growth was monitored, by measuring tumor nodules every 3 days for 3 weeks.

[6] = test system: B16 melanoma; assay: B16 melanoma growing at the CNS site (intracranial); type: in vivo, mouse
Description: (§5) The intracranial transplantation procedure was performed as previously described (Tentori 2002b). Cells (10^4 in 0.03 ml of RPMI-1640) were injected intra-cranially (ic) through the center-middle area of the frontal bone to a 2 mm depth, using a 0.1 ml glass microsyringe and a 27-gauge disposable needle.
(§6) Murine melanoma B16 or lymphoma L5178Y cells (10^4) were injected ic into male B6D2F1 (C57BL/6×DBA/2) mice. Human glioblastoma multiforme SJGBM2 cells (10^6) were injected ic into male athymic BALB/c mice (nu/nu genotype). Before tumor challenge, animals were anesthetized with ketamine (100 mg/kg) and xylazine (5 mg/kg) in 0.9% NaCl solution (10 ml/kg/ip).
(§7) Mice were monitored for mortality for 90 days. Median survival times (MST) were determined and the percentage of increase in lifespan (ILS) was calculated as: {[MST (days) of treated mice/MST (days) of control mice]−1}×100. Efficacy of treatments was evaluated by comparing survival curves between treated and control groups.
(§8) To assess the ability of different treatments to reduce tumor growth, histological examination of the brains was performed using additional animals that were not considered for the analysis of survival. Mice were sacrificed at different time points after tumor challenge, selected within the MST range of untreated tumor-bearing animals.

[7] = crossing of the blood-brain barrier; type: in vivo; conditions: systemic administration
[8] = test system: SJGBM2 human glioblastoma multiforme; assay: orthotopic human glioblastoma multiforme xenograft in nude mice; type: in vivo, mouse; conditions: with respect to controls or single agents
Description: as §5, §6, §7, §8

[9] = drug toxicity / maximal tolerated dose in intact mice; conditions: TMZ ip + 43 iv, for 3 days
Description: Drug toxicity was evaluated by treating intact mice (5/group) with the compounds under study, used as single agents or in combination. Control groups were treated with vehicles only. Body weight was measured three times weekly and survivals were recorded for 3 weeks after the last treatment. Toxicity was assessed on the basis of apparent drug-related deaths and net body weight loss [i.e., (initial weight−lowest weight/initial weight)×100%]. Death was considered drug-related when occurring within 7 days after the last treatment.
43 was dissolved in 70 mM PBS without potassium, and injected intravenously (iv) at different doses (40-200 mg/kg) to establish the maximal tolerated dose.
TMZ was dissolved in dimethyl-sulfoxide (40 mg/ml), diluted in saline (5 mg/ml) and administered ip at doses commonly used for in vivo preclinical studies (Friedman 1995; Middleton 2000; Kokkinakis 2001). Experiments were performed using different doses and schedules of TMZ+43 to determine the maximal tolerated dose of the drug combination. 43 was administered 15 min before TMZ administration. Control mice were always injected with drug vehicles.

Structure (SMILES)	cardiac protection (infarct size) [1]	intrinsic growth inhibition as single agent ([2]; 1-25 μM 43, B16)	maximal enhancement of TMZ-induced growth inhibition ([2]; B16, 0.6 μM 43) [fold]	susceptibility to antiproliferative effect with respect to SJGBM2 and L5178Y ([2]; B16, 43 as single agent)	inhibition at 1.2 µM ([2]; Mus musculus, B16, 43 at 1.2 μM, read-out: growth inhibition with respect to control) [%]	intrinsic growth inhibition as single agent ([3]; 1-25 μM 43, SJGBM2)	maximal increase of TMZ growth inhibitory effect ([3]; SJGBM2, 1.2 μM 43) [fold]	intrinsic growth inhibitory effect ([3]; SJGBM2, 2.5 μM 43)	intrinsic growth inhibition as single agent ([4]; 1-25 μM 43, L5178Y)	maximal increase of TMZ growth inhibitory effect ([4]; L5178Y, 1.2 μM 43) [fold]	intrinsic growth inhibitory effect ([4]; L5178Y, 2.5 μM 43)	tumor growth, 43 only ([5]; 43 40 mg/kg/day iv, single agent)	enhancement of the antitumor effects of TMZ ([5]; TMZ 100 mg/kg/day ip + 43 40 mg/kg/day iv, P <0.0001)	tumor infiltration in the brain (histology) [6]	blood-brain barrier crossing [7]	survival of tumor bearing mice [8]	highest tolerable dose of the drug combination [9] [mg/kg/day]
CN1CCN(Cc2ccc3c(c2)-c2n[nH]c(=O)c4cccc(c24)O3)CC1 [Compound 43, 10-(4-Methyl-piperazin-1-ylmethyl)-2H-7-oxa-1,2-diaza-benzo[de]anthracen-3-one]	significant cardiac protection	some intrinsic growth inhibition	10	more susceptible	18 ± 3	some intrinsic growth inhibition	~4	intrinsic growth inhibitory effect	some intrinsic growth inhibition	~10	intrinsic growth inhibitory effect	did not affect tumor growth	significantly enhanced	pronounced and diffuse tumor infiltration	capable of crossing the blood-brain barrier		
Cn1nnc2c(C(N)=O)ncn2c1=O [TMZ, temozolimide]														limited but multifocal infiltration		completely ineffective	100
